{"source": "patent EP1075186B1", "about": "“METHOD OF HSV PROPHYLAXIS” (The Children's Hospital Research Foundation, priority 1998, dated 1999)", "key": {"[1]": {"tested_on": "HSV-1", "assay": "Cytopathic effect inhibition assay, HSV-1", "format": "cell-based", "conditions": "Human alphaherpesvirus 1; Table 19; read-out: EC50 HSV-1 CPE", "description": "(§1) Newborn human foreskin were obtained as soon as possible after circumcisions were performed and placed in minimal essential medium (MEM) containing vacomycin, fungizone, penicillin, and gentamycin, at the usual concentrations, for four hours. The medium was then removed, the foreskin minced into small pieces and washed repeatedly until red cells were no longer present. The tissue was then trypsinized using trypsin at 0.25% with continuous stirring for 15 minutes at 37°C in a CO2 incubator. At the end of each 15 minute period, the tissue was allowed to settle to the bottom of the flask. The supernatant containing cells was poured through sterile cheesecloth into a flask containing MEM and 10% fetal bovine serum. The flask containing the medium was kept on ice through out the trypsinizing procedure. After each addition of cells, the cheesecloth was washed with a small amount of MEM containing serum. Fresh trypsin was added each time to the foreskin pieces and the procedure repeated until no more cells became available. The cell containing medium was then centrifuged at 1000 RPM at 4°C for ten minutes. The supernatant liquid was discarded and the cells resuspended in a small amount of MEM with 10% FBS. The cells were then placed in an appropriate number of 25 cm^2 tissue culture flasks. As cells became confluent and needed trypsinization, they were gradually expanded into larger flasks. […]"}, "[2]": {"tested_on": "HSV-2", "assay": "Cytopathic effect inhibition assay, HSV-2", "format": "cell-based", "conditions": "Human alphaherpesvirus 2; Table 19; read-out: EC50 HSV-2 CPE", "description": "as §1"}, "[3]": {"tested_on": "HSV-1", "assay": "Plaque reduction assay, HSV-1", "format": "cell-based", "conditions": "Human alphaherpesvirus 1; Table 19", "description": "Two days prior to use, HFF cells are plated into six well plates and incubated at 37°C with 5% CO2 and 90% humidity. On the date of assay, the drug is made up at twice the desired concentration in 2X MEM and then serially diluted 1:5 in 2X MEM using six concentrations of drug. The initial starting concentration isusually 200 µg/ml down to 0.06 µg/ml. The virus to be used is diluted in MEM containing 10% FBS to a desired concentration which will give 20 - 30 plaques per well. […] The plates are then incubated for one hour with shaking every fifteen minutes. After the incubation period, an equal amount of 1% agarose was added to an equal volume of each drug dilution. This will give final drug concentrations beginning with 100 µg/ml and ending with 0.03 µg/ml and a final agarose overlay concentration of 0.5%. […] At the end of 4-6 hr incubation period, the stain is aspirated, and plaques counted using a stereomicroscope at 10X magnification. The procedure for the liquid overlay plaque assay is similar to that using the agarose overlay. The procedure for adding the virus is the same as for the regular plaque assay. The drugs are made up in a concentration to be used in MEM with 2% FBS. […] For CMV and VZV, no antibody in the overlay is utilized. For the CMV assay, additional medium without new drug is added on day six and allowed to incubate for a total of 11 days. […]"}, "[4]": {"tested_on": "VZV", "assay": "Plaque reduction assay, VZV", "format": "cell-based", "set-up": "EC50 VZV Plaque: unit not given beside the values", "description": "Two days prior to use, HFF cells are plated into six well plates and incubated at 37°C with 5% CO2 and 90% humidity. On the date of assay, the drug is made up at twice the desired concentration in 2X MEM and then serially diluted 1:5 in 2X MEM using six concentrations of drug. The initial starting concentration isusually 200 µg/ml down to 0.06 µg/ml. The virus to be used is diluted in MEM containing 10% FBS to a desired concentration which will give 20 - 30 plaques per well. […] The plates are then incubated for one hour with shaking every fifteen minutes. After the incubation period, an equal amount of 1% agarose was added to an equal volume of each drug dilution. This will give final drug concentrations beginning with 100 µg/ml and ending with 0.03 µg/ml and a final agarose overlay concentration of 0.5%. […] At the end of 4-6 hr incubation period, the stain is aspirated, and plaques counted using a stereomicroscope at 10X magnification. […] After addition of the drug, the plates are incubated for ten days. • 2. On days three and six an additional 1 ml overlay with equal amounts of 2X MEM and 1% agarose are added. The procedure for the liquid overlay plaque assay is similar to that using the agarose overlay. The procedure for adding the virus is the same as for the regular plaque assay. The drugs are made up in a concentration to be used in MEM with 2% FBS. […]"}, "[5]": {"tested_on": "EBV", "assay": "EBV screening test (IMN)", "format": "cell-based", "conditions": "human gammaherpesvirus 4, Table 19"}, "[6]": {"tested_on": "HSV-2 strain 186", "assay": "Mouse genital HSV-2 model, intravaginal prophylaxis", "format": "in vivo, Swiss Webster mice", "conditions": "Table 21; for Virus Isolated / Dead: 2% intravaginal, one treatment just prior to HSV-2 challenge, 15 mice; for Virus Isolated: number of animals; for Dead: observed to day 21 PI", "description": "Sixty female Swiss Webster mice pretreated with medroxyprogesterone acetate were randomized to four groups of 15 to receive either Saline (control), 2 % Acyclovir, 2 % Compound 96, or 0.5% Compound 96. Animals were anesthetized by intraperitoneal injection of sodium pentabarbital and then administered 15 µl of control or test compound intravaginally in one treatment. They were then immediately challenged by intravaginal instillation with 15 µl of a suspension containing 10^4 plaque forming units HSV-2 strain 186. Vaginal swabs were collected on days 1 and 2 post-inoculation (PI) to assess the effect of treatment on vaginal replication in the genital tract. In addition, all animals were examined daily until day 21 PI for mortality and signs of infection (erythema, hair loss and hind limb paralysis)."}, "[7]": {"tested_on": "HCMV", "conditions": "Table 19", "description": "as §1"}, "[8]": {"tested_on": "HCMV", "assay": "Plaque reduction assay, HCMV", "format": "cell-based", "conditions": "Human betaherpesvirus 5, Table 19", "description": "Two days prior to use, HFF cells are plated into six well plates and incubated at 37°C with 5% CO2 and 90% humidity. On the date of assay, the drug is made up at twice the desired concentration in 2X MEM and then serially diluted 1:5 in 2X MEM using six concentrations of drug. The initial starting concentration isusually 200 µg/ml down to 0.06 µg/ml. The virus to be used is diluted in MEM containing 10% FBS to a desired concentration which will give 20 - 30 plaques per well. The media is then aspirated from the wells and 0.2 ml of virus is added to drug toxicity wells. The plates are then incubated for one hour with shaking every fifteen minutes. After the incubation period, an equal amount of 1% agarose was added to an equal volume of each drug dilution. This will give final drug concentrations beginning with 100 µg/ml and ending with 0.03 µg/ml and a final agarose overlay concentration of 0.5%. The drug agarose mixture is applied to each well in 2 ml volume and the plates then incubated for three days, after which the cells were stained with a 1.5 % solution of neutral red. At the end of 4-6 hr incubation period, the stain is aspirated, and plaques counted using a stereomicroscope at 10X magnification.\nThe procedure is essentially the same as for HSV analysis with the following minor changes. […]"}, "[9]": {"tested_on": "HFF cells", "assay": "Cell proliferation assay", "format": "cell-based, human", "conditions": "Table 20; RAPIDLY GROWING CELLS", "description": "On the day of the assay, drugs are diluted serially in MEM containing 10% FBS at increments of 1:5 covering a range from 100 μg/ml to 0.03 μg/ml. For drugs that have to be solubilized in DMSO, control wells […] MEM containing 10% DMSO. The media from the wells is then aspirated and 2 ml of each drug concentration is then added to each well. The cells are then incubated in a CO2 incubator at 37°C for 72 hours. At the end of this time, the media-drug solution is removed and the cells washed. […] The cell-media mixture is then pipetted up and down vigorously to break up the cell suspension and 0.2 ml of the mixture is added to 9.8 ml of Isoton III and counted using a Coulter Counter. Each sample is counted three times with three replicate wells per sample."}, "[10]": {"conditions": "2%, mean log10 viral titers ± SEM, infected animals only"}}, "note": "“And” between values parts separate entries of the source, which are not always exact repeats. Equal entries are not always repeated.", "data": [{"compound": "Nc1nc2c(ncn2COCCO)c(=O)[nH]1", "note": "[Acyclovir]", "values": [{"measurement": "EC50", "setting": "[1]", "result": 0.2, "unit": "µg/mL"}, {"measurement": "EC50", "setting": "[2]", "result": 0.7, "unit": "µg/mL"}, {"measurement": "EC50", "setting": "[3]", "result": 0.2, "unit": "µg/mL"}, {"measurement": "EC50", "setting": "[4]; Human alphaherpesvirus 3, Table 19", "result": 3.2, "unit": "µg/mL"}, {"measurement": "EC50 VZV Plaque", "setting": "[4]; Table 19, listed as ACV", "result": "4.4 and 3.1 and 3.0"}, {"measurement": "EC50", "setting": "[5]", "result": 6, "unit": "µg/mL"}, {"measurement": "Virus Isolated", "setting": "[6]", "result": 12}, {"measurement": "Virus Isolated", "setting": "[6]; listed as acyclovir", "result": "12/15"}, {"measurement": "Dead", "setting": "[6]", "result": 12}, {"measurement": "Dead", "setting": "[6]; listed as acyclovir", "result": "12/15"}, {"measurement": "Vaginal Virus Titer Day 1", "setting": "[6]; [10]", "result": "1.96 ± 0.38", "unit": "log10"}, {"measurement": "Vaginal Virus Titer Day 2", "setting": "[6]; [10]", "result": "3.82 ± 0.38", "unit": "log10"}]}, {"compound": "Nc1nc2c(ncn2COC(CO)CO)c(=O)[nH]1", "note": "[DHPG]", "values": [{"measurement": "EC50 HCMV CPE", "setting": "[7]", "result": 0.8, "unit": "µg/mL"}, {"measurement": "EC50", "setting": "[8]", "result": 0.7, "unit": "µg/mL"}]}, {"compound": "O=c1[nH]c(=O)n([C@@H]2O[C@H](CO)[C@@H](O)[C@@H]2F)cc1I", "note": "[FIAU, 2'-fluoro-5-iodo-arabinosyl-uracil]", "values": [{"measurement": "TOXICITY ASSAYS - IC50 CELL PROLIFERATION", "setting": "[9]", "result": "3.3 MCG/ML and 8.4 MCG/ML"}]}]}
